Experimental data taken from ChEMBL document CHEMBL4411291, “Synthesis and anti-tumor activity of imidazopyrazines as TAK1 inhibitors” (Eur J Med Chem, 2019).
Activity calls are given as the source filed them. No cut-off for these calls is given here.

How the values were obtained:
[1] = biological target: T1, Mitogen-activated protein kinase kinase kinase 7 (Homo sapiens) (UniProt O43318); assay: Inhibition of TAK1 (unknown origin) at 0.1 uM by LanthaScreen Eu kinase binding assay relative to control
T1 sequence (whole entry): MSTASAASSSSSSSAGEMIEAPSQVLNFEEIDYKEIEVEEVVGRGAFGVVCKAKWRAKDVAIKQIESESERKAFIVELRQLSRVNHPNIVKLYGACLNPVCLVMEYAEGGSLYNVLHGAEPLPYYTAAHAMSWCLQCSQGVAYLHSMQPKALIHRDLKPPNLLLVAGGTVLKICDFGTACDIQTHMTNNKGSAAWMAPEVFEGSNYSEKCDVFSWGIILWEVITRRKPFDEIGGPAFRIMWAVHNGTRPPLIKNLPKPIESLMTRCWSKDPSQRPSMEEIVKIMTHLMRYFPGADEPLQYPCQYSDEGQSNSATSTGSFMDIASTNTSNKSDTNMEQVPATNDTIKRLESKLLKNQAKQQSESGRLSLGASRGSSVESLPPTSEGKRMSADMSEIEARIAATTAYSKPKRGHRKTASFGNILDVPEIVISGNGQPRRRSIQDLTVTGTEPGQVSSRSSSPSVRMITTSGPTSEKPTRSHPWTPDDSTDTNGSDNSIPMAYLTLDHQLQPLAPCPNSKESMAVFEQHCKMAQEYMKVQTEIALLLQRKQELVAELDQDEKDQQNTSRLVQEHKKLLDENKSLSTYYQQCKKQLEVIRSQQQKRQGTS

[2] = biological target: T1, Mitogen-activated protein kinase kinase kinase 7 (Homo sapiens); assay: Inhibition of TAK1 (unknown origin) at 1 uM by LanthaScreen Eu kinase binding assay relative to control
[3] = tested on: LoVo; assay: Growth inhibition of human LoVo cells after 96 hrs by SRB assay; assay type: functional, cell-based
[4] = tested on: SW-620; assay: Antitumor activity against human SW620 cells xenografted in CAnN.Cg-Foxnlnu/Crljbgi nude mouse assessed as tumor growth inhibition at 30 mg/kg, po dosed daily for 14 consecutive days; assay type: functional, organism-based
[5] = Toxicity in CAnN.Cg-Foxnlnu/Crljbgi nude mouse xenografted with human SW620 cells assessed as weight loss at 30 mg/kg, po dosed daily for 14 consecutive days; assay type: organism-based; conditions: in vivo
[6] = tested on: SW-620; assay: Growth inhibition of human SW620 cells after 96 hrs by SRB assay; assay type: functional, cell-based; conditions: SW-620, 96 h
[7] = tested on: SK-CO-1; assay: Growth inhibition of human SKCO1 cells after 96 hrs by SRB assay; assay type: functional, cell-based; conditions: SK-CO-1, 96 h
[8] = biological target: T1, Mitogen-activated protein kinase kinase kinase 7 (Homo sapiens); assay: Inhibition of TAK1 phosphorylation in human SW620 cells after 24 hrs by immunoblotting analysis; assay type: cell-based
[9] = biological target: CDK2/Cyclin A2 (Homo sapiens) (UniProt P24941+P20248); assay: Inhibition of CDK2/cyclin A (unknown origin) at 1 uM by LanthaScreen Eu kinase binding assay relative to control; assay type: protein-complex assay
[10] = biological target: Platelet-derived growth factor receptor alpha (Homo sapiens) (UniProt P16234); assay: Inhibition of PDGFRalpha (unknown origin) at 1 uM by LanthaScreen Eu kinase binding assay relative to control
Chain of Platelet-derived growth factor receptor alpha (Homo sapiens) (P16234 whole entry): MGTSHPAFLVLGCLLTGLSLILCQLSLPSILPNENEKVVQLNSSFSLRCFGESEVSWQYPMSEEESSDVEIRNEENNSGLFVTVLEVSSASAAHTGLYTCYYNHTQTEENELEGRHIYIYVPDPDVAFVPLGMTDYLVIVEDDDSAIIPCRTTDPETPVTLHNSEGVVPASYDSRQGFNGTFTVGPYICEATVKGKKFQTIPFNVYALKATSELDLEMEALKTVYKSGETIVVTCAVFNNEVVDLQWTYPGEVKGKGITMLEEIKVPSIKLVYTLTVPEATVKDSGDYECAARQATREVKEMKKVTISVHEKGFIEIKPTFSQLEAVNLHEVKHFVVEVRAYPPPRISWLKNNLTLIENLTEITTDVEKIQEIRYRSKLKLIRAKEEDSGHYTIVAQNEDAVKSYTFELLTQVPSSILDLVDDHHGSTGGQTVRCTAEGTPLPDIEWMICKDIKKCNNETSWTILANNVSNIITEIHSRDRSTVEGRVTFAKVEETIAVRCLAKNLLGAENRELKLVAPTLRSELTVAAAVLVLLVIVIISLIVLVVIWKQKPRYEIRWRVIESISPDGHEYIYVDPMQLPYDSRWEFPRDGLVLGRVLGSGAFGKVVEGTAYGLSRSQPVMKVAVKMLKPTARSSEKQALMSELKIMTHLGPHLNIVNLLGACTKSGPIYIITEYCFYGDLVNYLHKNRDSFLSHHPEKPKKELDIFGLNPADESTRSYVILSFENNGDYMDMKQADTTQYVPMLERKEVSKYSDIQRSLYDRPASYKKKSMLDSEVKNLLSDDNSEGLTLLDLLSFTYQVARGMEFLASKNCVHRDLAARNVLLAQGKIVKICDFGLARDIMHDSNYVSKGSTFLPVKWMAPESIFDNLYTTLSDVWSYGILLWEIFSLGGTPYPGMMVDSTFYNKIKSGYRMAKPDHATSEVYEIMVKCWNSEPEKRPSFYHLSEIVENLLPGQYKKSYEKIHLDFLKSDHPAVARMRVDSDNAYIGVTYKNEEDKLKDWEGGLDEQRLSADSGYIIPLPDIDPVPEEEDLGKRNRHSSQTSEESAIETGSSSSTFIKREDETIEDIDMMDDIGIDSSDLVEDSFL

[11] = Stability in human liver microsomes assessed as parent compound remaining after 60 mins in presence of NADPH by HPLC analysis; assay type: ADME, Microsome; conditions: read-out: Stability
[12] = AUC (0 to 7 hrs) in ICR mouse at 8.2 mg/kg, po administered as single dose or 3 mg/kg, iv by LC-MS/MS analysis; assay type: ADME, organism-based; conditions: in vivo
[13] = biological target: Cytochrome P450 2C9 (Homo sapiens, UniProt P11712); assay: Inhibition of CYP2C9 in liver microsomes (unknown origin) using sulfaphenazole as […] preincubated for 5 mins followed by NADPH addition and measured after 15 mins by LC-MS/MS analysis; assay type: ADME
Chain of Cytochrome P450 2C9 (P11712 whole entry): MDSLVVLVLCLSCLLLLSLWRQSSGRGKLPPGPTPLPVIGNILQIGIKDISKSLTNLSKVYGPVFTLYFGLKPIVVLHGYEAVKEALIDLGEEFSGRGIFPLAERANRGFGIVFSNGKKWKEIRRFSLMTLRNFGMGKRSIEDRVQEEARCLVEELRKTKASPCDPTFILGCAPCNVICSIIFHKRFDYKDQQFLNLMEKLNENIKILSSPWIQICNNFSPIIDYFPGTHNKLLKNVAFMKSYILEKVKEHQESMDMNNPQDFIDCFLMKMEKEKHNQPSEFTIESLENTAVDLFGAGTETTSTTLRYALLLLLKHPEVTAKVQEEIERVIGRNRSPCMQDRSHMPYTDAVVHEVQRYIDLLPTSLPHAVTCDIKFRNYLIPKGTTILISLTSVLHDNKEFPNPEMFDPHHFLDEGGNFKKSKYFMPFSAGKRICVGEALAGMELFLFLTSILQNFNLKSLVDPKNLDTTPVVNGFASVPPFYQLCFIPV

[14] = Toxicity in CAnN.Cg-Foxnlnu/Crljbgi nude mouse xenografted with human SW620 cells assessed as weight loss at 100 mg/kg, po dosed daily for 14 consecutive days; assay type: organism-based; conditions: in vivo
[15] = biological target: Serine/threonine-protein kinase B-raf (Homo sapiens) (UniProt P15056); assay: Inhibition of BRAF (unknown origin) at 1 uM by LanthaScreen Eu kinase binding assay relative to control
[16] = biological target: Cytochrome P450 1A2 (Homo sapiens, UniProt P05177); assay: Inhibition of CYP1A2 in liver microsomes (unknown origin) using alpha-naphthoflavone as […] preincubated for 5 mins followed by NADPH addition and measured after 15 mins by LC-MS/MS analysis; assay type: ADME
Chain of Cytochrome P450 1A2 (P05177 whole entry): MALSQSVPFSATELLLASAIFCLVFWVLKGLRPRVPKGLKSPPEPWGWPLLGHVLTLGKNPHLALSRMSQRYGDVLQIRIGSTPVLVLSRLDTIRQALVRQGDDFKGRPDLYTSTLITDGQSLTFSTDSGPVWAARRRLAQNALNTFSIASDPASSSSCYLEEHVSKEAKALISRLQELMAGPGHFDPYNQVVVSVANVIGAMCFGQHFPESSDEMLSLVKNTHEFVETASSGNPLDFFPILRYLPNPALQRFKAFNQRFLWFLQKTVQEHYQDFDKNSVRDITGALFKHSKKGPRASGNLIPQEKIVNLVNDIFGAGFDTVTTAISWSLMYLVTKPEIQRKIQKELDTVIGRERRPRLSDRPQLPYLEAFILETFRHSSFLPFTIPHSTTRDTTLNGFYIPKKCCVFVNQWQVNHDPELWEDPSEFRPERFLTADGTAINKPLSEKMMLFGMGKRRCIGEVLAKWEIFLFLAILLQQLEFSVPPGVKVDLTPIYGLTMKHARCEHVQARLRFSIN

[17] = biological target: Glycogen synthase kinase-3 beta (Homo sapiens) (UniProt P49841); assay: Inhibition of GSK3b (unknown origin) at 1 uM by LanthaScreen Eu kinase binding assay relative to control
[18] = Toxicity in CAnN.Cg-Foxnlnu/Crljbgi nude mouse xenografted with human SW620 cells at 100 mg/kg, po dosed daily for 14 consecutive days; assay type: organism-based; conditions: in vivo
[19] = Stability in mouse plasma assessed as parent compound remaining after 6 hrs by LC-MS/MS analysis; assay type: ADME, cell-free; conditions: read-out: Stability
[20] = Half life in ICR mouse at 8.2 mg/kg, po administered as single dose or 3 mg/kg, iv by LC-MS/MS analysis; assay type: ADME, organism-based; conditions: in vivo
[21] = biological target: Voltage-gated inwardly rectifying potassium channel KCNH2 (Homo sapiens, UniProt Q12809); assay: Binding affinity to human ERG by fluorescence polarization assay
[22] = tested on: SW-620; assay: Induction of apoptosis in human SW620 cells assessed as Caspase-3 activity at 10 uM after 24 hrs by Caspase-3/7 reagent-based fluorescence assay; assay type: functional, cell-based
[23] = biological target: Inhibitor of nuclear factor kappa-B kinase subunit beta (Homo sapiens) (UniProt O14920); assay: Inhibition of IKKbeta (unknown origin) at 1 uM by LanthaScreen Eu kinase binding assay relative to control
Chain of Inhibitor of nuclear factor kappa-B kinase subunit beta (Homo sapiens) (O14920 whole entry): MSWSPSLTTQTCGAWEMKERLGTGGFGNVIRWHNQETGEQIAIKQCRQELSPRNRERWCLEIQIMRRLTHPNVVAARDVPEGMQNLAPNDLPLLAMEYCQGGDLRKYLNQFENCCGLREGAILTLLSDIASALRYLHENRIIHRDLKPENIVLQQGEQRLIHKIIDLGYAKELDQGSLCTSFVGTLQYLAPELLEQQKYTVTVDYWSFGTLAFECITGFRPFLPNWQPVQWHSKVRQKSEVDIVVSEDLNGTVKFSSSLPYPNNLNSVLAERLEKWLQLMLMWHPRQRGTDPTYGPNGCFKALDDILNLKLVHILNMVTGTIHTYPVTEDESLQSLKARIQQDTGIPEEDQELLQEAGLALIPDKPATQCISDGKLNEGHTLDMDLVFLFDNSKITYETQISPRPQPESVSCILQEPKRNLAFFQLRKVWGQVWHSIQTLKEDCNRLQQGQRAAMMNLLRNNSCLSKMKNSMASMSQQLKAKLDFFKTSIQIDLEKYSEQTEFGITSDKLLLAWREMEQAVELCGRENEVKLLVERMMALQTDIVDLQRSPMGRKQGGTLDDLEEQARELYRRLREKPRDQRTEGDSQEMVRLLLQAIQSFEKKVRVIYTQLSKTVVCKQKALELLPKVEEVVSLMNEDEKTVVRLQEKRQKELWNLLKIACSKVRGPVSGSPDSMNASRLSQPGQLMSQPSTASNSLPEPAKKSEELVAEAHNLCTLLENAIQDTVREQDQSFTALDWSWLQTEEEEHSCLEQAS

[24] = biological target: Cytochrome P450 2C19 (Homo sapiens, UniProt P33261); assay: Inhibition of CYP2C19 in liver microsomes (unknown origin) using (+/-) N-3-benzylnirvanol as […] preincubated for 5 mins followed by NADPH addition and measured after 15 mins by LC-MS/MS analysis; assay type: ADME
[25] = biological target: TAK1/TAB1 (Homo sapiens, UniProt O43318); assay: Inhibition of N-terminal His-tagged human TAK1 (1 to 303 amino acids)/human TAB1 (437 to 504 amino acids) expressed in baculovirus expression system using fluorescence-labeled substrate by off-chip mobility shift assay
Chain of TAK1/TAB1 (Q15750 whole entry, one chain of several, the tested form may be a part): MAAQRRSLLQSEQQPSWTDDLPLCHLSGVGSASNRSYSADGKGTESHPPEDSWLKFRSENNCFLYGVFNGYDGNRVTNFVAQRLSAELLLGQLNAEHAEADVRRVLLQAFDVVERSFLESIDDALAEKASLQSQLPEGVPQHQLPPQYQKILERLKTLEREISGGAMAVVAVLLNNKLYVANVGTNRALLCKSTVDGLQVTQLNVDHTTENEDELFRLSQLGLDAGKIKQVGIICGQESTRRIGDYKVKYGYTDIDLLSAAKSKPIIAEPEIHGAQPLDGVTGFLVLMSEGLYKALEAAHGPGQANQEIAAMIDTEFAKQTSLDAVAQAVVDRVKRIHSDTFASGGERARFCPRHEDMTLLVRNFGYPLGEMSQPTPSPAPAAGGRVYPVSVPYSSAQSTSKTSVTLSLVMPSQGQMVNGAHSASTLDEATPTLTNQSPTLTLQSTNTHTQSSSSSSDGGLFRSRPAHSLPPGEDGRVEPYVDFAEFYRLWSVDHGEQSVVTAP

[26] = biological target: Cytochrome P450 2B6 (Homo sapiens, UniProt P20813); assay: Inhibition of CYP2B6 in liver microsomes (unknown origin) using clopidogrel as […] preincubated for 5 mins followed by NADPH addition and measured after 15 mins by LC-MS/MS analysis; assay type: ADME
Chain of Cytochrome P450 2B6 (P20813 whole entry): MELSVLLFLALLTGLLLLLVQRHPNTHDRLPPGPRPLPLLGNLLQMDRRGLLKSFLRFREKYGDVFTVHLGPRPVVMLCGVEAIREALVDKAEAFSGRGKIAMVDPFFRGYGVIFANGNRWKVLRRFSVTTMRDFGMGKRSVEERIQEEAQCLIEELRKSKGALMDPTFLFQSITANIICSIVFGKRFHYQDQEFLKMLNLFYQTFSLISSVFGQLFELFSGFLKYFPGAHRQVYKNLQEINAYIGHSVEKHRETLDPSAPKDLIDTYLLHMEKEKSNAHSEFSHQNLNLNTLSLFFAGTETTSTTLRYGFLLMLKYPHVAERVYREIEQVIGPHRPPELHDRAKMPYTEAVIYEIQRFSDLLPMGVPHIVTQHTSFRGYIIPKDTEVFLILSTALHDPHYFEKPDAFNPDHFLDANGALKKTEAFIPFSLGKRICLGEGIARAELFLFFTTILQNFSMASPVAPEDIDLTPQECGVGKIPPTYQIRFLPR

[27] = Oral bioavailability in ICR mouse at 8.2 mg/kg administered as single dose by LC-MS/MS analysis; assay type: ADME, organism-based; conditions: in vivo
[28] = biological target: Ribosomal protein S6 kinase alpha-1 (Homo sapiens) (UniProt Q15418); assay: Inhibition of RPS6KA1 (unknown origin) at 1 uM by LanthaScreen Eu kinase binding assay relative to control
[29] = biological target: Mitogen-activated protein kinase 14 (Homo sapiens) (UniProt Q16539); assay: Inhibition of […] (unknown origin) at 1 uM by LanthaScreen Eu kinase binding assay relative to control
Chain of Mitogen-activated protein kinase 14 (Homo sapiens) (Q16539 whole entry): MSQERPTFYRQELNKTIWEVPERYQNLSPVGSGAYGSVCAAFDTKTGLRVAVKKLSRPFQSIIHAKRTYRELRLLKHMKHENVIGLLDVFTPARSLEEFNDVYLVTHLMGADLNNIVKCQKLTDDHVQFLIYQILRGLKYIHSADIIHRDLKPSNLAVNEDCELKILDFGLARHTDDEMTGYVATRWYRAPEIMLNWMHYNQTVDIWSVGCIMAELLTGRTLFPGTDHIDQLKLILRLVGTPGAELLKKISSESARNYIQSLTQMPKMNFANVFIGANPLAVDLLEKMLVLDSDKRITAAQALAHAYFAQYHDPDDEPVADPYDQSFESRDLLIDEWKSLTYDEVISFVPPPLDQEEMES

[30] = biological target: Epidermal growth factor receptor (Homo sapiens) (UniProt P00533); assay: Inhibition of EGFR (unknown origin) at 1 uM by LanthaScreen Eu kinase binding assay relative to control
[31] = Cmax in ICR mouse at 8.2 mg/kg, po administered as single dose or 3 mg/kg, iv by LC-MS/MS analysis; assay type: ADME, organism-based; conditions: in vivo
[32] = Stability in human plasma assessed as parent compound remaining after 6 hrs by LC-MS/MS analysis; assay type: ADME, cell-free; conditions: read-out: Stability
[33] = Stability in mouse liver microsomes assessed as parent compound remaining after 60 mins in presence of NADPH by HPLC analysis; assay type: ADME, Microsome; conditions: read-out: Stability
[34] = biological target: High affinity nerve growth factor receptor (Homo sapiens) (UniProt P04629); assay: Inhibition of NTRK1 (unknown origin) at 1 uM by LanthaScreen Eu kinase binding assay relative to control
[35] = tested on: SW-620; assay: Antitumor activity against human SW620 cells xenografted in CAnN.Cg-Foxnlnu/Crljbgi nude mouse assessed as tumor growth inhibition at 100 mg/kg, po dosed daily for 14 consecutive days; assay type: functional, organism-based
[36] = biological target: Tyrosine-protein kinase BTK (Homo sapiens) (UniProt Q06187); assay: Inhibition of BTK (unknown origin) at 1 uM by LanthaScreen Eu kinase binding assay relative to control
[37] = biological target: Cytochrome P450 3A4 (Homo sapiens, UniProt P08684); assay: Inhibition of CYP3A4 in liver microsomes (unknown origin) using ketoconazole as […] preincubated for 5 mins followed by NADPH addition and measured after 15 mins by LC-MS/MS analysis; assay type: ADME
Chain of Cytochrome P450 3A4 (P08684 whole entry): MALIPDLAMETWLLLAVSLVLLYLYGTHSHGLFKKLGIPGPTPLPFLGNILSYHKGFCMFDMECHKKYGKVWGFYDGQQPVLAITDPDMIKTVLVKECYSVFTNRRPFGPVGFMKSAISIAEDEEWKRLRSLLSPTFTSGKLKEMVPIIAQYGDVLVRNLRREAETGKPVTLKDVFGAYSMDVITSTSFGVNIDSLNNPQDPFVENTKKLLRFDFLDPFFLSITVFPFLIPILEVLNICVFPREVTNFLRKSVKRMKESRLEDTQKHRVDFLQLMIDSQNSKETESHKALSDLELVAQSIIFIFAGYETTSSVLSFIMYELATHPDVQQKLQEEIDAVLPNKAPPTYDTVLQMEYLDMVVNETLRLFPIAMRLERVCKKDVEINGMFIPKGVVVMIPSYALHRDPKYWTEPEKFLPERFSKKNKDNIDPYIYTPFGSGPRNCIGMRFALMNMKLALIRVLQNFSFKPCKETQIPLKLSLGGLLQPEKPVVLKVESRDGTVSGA

[38] = Half life in ICR mouse at 10 mg/kg, po administered as single dose or 3 mg/kg, iv by LC-MS/MS analysis; assay type: ADME, organism-based; conditions: in vivo
[39] = Cmax in ICR mouse at 10 mg/kg, po administered as single dose or 3 mg/kg, iv by LC-MS/MS analysis; assay type: ADME, organism-based; conditions: in vivo
[40] = AUC (0 to 7 hrs) in ICR mouse at 10 mg/kg, po administered as single dose or 3 mg/kg, iv by LC-MS/MS analysis; assay type: ADME, organism-based; conditions: in vivo
[41] = Oral bioavailability in ICR mouse at 10 mg/kg administered as single dose by LC-MS/MS analysis; assay type: ADME, organism-based; conditions: in vivo

Work on `Cc1cc(NC(=O)Nc2cc(C(C)(C)C)nn2-c2cccc(C#N)c2)ccc1Oc1cnc(NC2CC2)c2nccn12` yielded an inhibition [1] of 0% and an inhibition [2] of 76%.

In the case of `CCc1cc(Nc2ncc(F)c(-c3cnc4cccnn34)n2)cc(OCCN2CCC(O)CC2)c1`, the inhibition [1] is reported as 96%, the IC50 [3] is reported as 75 nM and the TGI [4] is reported as “Active”. The Activity [5] was “Toxic”, the inhibition [2] was 98% and the IC50 [6] was 38 nM. It also gave an IC50 [7] of 61 nM.

For `Cc1cc(NC(=O)Nc2cc(C(C)(C)C)nn2-c2cccc([N+](=O)[O-])c2)ccc1-c1cnc(NC2CC2)c2ncnn12`, the inhibition [1] was 26% and the inhibition [2] was 90%.

With `Cc1cc(NC(=O)Nc2cc(C(C)(C)C)nn2-c2ccccc2)ccc1-c1cnc(NC2CC2)c2nccn12` the inhibition [8] was “Dose-dependent effect”, the inhibition [9] was 1% and the inhibition [1] was 56%. The inhibition [10] was 88%, the remaining at 1 h [11] was 37% and the AUC(0-t) [12] was 3140 ng·h/mL. The IC50 [13] was 3500 nM, the Activity [14] was “Non-Toxic” and the inhibition [15] was 37%. The IC50 [16] was > 25000 nM, the inhibition [17] was 51% and the IC50 [3] was 391 nM. The Activity [18] was “Non-Toxic”, the remaining at 6 h [19] was 88% and the half-life [20] was 1.6 h. The IC50 [21] was > 50000 nM, the Activity [22] was “Active” and the inhibition [23] was 0%. The inhibition [2] was 98%, the IC50 [24] was > 25000 nM and the IC50 [25] was 37 nM. For the same compound, the IC50 [26] was > 25000 nM, the bioavailability [27] was 25.2% and the IC50 [6] was 330 nM. It also gave an inhibition [28] of 4%, an inhibition [29] of 82% and an inhibition [30] of 45%. The IC50 [7] was 274 nM, the Cmax [31] was 1930 ng/mL and the remaining at 6 h [32] was 90%. The remaining at 1 h [33] was 44%, the inhibition [34] was 82% and the Activity [35] was “Active”. The inhibition [36] was 0% and the IC50 [37] was 3520 nM.

`Cc1cc(NC(=O)Nc2cc(C(C)(C)C)nn2-c2cccc(C#N)c2)ccc1-c1cnc(NC2CC2)c2nccn12` gave an inhibition [1] of 49%, a remaining at 1 h [11] of 33% and a half-life [38] of 2.4 h. The remaining at 6 h [19] was 88%, the Cmax [39] was 231 ng/mL and the inhibition [2] was 97%. It also gave an AUC(0-t) [40] of 360 ng·h/mL, an IC50 [25] of 41 nM and an IC50 [6] of 169 nM. It also gave a remaining at 6 h [32] of 100%, a remaining at 1 h [33] of 37% and a bioavailability [41] of 3.1%.
